In patent US6797461B2, “Tryptase substrates and assay for tryptase activity using same” (Promega Corporation, priority 2000, dated 2004):
Residues, ends and D or L forms follow the SMILES beside them. *: point of attachment. ACC = NC(=O)Cc1cc(=O)oc2cc(N*)ccc12

Legend:
Type in all cases: biochemical
[1] = tested on: T1, recombinant human β-II tryptase (lung tryptase) (Homo sapiens, N132K); assay: Single substrate kinetic analysis of fluorogenic ACC substrates, lung (β-II) tryptase
T1 construct: Secreted mature βI- and βII-tryptases were purified to homogeneity; made in house; host or cells: Pichia pastoris GS115
T1 sequence (Q15661 31-275 N132K): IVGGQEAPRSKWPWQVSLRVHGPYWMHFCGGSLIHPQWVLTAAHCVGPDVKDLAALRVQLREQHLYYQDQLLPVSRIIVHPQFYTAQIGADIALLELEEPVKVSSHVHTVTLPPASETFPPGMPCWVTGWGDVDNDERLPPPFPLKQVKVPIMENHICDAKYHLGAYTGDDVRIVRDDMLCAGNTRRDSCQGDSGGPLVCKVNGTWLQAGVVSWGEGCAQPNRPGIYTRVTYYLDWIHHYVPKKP
Experimental: (§1) βI- and βII-tryptase concentrations ranged from 5 nM to 15 nM. The final concentration of substrate ranged from 5 μM to 200 μM; the concentration of DMSO in the assay was less than 5%. Hydrolysis of ACC substrates was monitored fluorometrically with an excitation wavelength of 380 nm and an emission wavelength of 460 nm on a Fluoromax-2 spectrofluorimeter.
(§2) Tryptase activity was monitored at 30° C. in assay buffer containing 100 mM HEPES, pH 7.5, 10% w/v glycerol, and 0.1 mg/ml heparin. Substrate stock solutions were prepared in DMSO. The final concentration of substrate ranged from 5 μM to […], the concentration of DMSO in the assay was less than 5%. Tryptase concentration was 5 nM.
(§3) Hydrolysis of ACC substrates was monitored fluorometrically with an excitation wavelength of 380 nm and emission wavelength of 450 nm on a Fluoromax-2 spectrofluorimeter. The amino-terminus of each polypeptide was acetylated.
(§4) To quantitate tryptase βI and βII dependence on extended substrate specificity, several peptide substrates were synthesized and the kinetic constants determined for each of the enzymes. […] All of these effects are manifested in the Km term, not the kcat term.
(§5) Kinetic parameters were independently obtained for both recombinant β-I and β-II tryptases against rational substitutions in the substrates at P2-P4 positions.

[2] = target: T2, recombinant human β-I tryptase (skin tryptase) (Homo sapiens, UniProt Q15661); assay: Single substrate kinetic analysis of fluorogenic ACC substrates, skin (β-I) tryptase
T2 construct: Secreted mature βI- and βII-tryptases were purified to homogeneity; made in house; host or cells: Pichia pastoris
T2 sequence (Q15661 31-275): as the sequence (Q15661 31-275 N132K) above, with K102N counted along it
Experimental: as §1, §2, §3, §4, §5

[3] = tested on: non-tryptase proteolysis in human serum; assay: Non-tryptase proteolytic activities in serum with protease inhibitors (FIG. 9); conditions: 25 μg/ml, 30 minutes at room temperature, Ac-PRNK-ACC 100 μM
Experimental: Human recombinant β-I tryptase (Promega) was two-fold serially diluted in human serum from 10,000 pg to 190 pg/ml. Aprotinin, Soybean trypsin inhibitor (SBTI) or anti-trypsin was added to each dilution at 25 μg/ml and allowed to incubate at room temperature for 30 minutes. An uninhibited serum standard curve was similarly created. 100 μl of each treated and untreated serum dilution was pipetted in triplicate to a microtiter well plate. Ac-PRNK-ACC (SEQ. ID. NO: 12) was added to 100 μM and the plate incubated at room temperature for 10 minutes prior to reading at an excitation wavelength of 355 nm and emission wavelength of 460 nm.

[4] = Lung (β-II) Tryptase, 30° C., 100 mM HEPES pH 7.5, 10% glycerol, 0.1 mg/ml heparin
[5] = Skin (β-I) Tryptase, 30° C., 100 mM HEPES pH 7.5, 10% glycerol, 0.1 mg/ml heparin

Compound | Km [1, 4] | activity relative to Ac-PRNK-ACC substrate (kcat/Km) ([1]; tryptase βII, range stated over tryptase βI and βII) | Km [2, 5] | activity relative to Ac-PRNK-ACC substrate (kcat/Km) ([2]; tryptase βI, range stated over tryptase βI and βII) | effect on intrinsic fluorescence associated with non-tryptase proteolysis in serum [3] | kcat [1, 4] | kcat [2, 5]
CC(=O)N1CCC[C@H]1C(=O)N[C@@H](CCCNC(=N)N)C(=O)N[C@@H](CC(N)=O)C(=O)N[C@@H](CCCNC(=N)N)C(=O)Nc1ccc2c(CC(N)=O)cc(=O)oc2c1 [Ac-PRNR-ACC] (Ac-PRNR-{ACC}) | 16.5 ± 2.7 µM | 70-90% | 18.6 ± 2.6 µM | 70-90% |  |  | 
CC(=O)N1CCC[C@H]1C(=O)N[C@@H](CCCNC(=N)N)C(=O)N[C@H](C(=O)N[C@@H](CCCCN)C(=O)Nc1ccc2c(CC(N)=O)cc(=O)oc2c1)[C@@H](C)O [Ac-PRTK-ACC] (Ac-PRTK-{ACC}) | 14.7 ± 1.4 µM |  | 23.4 ± 2.3 µM |  |  |  | 
CC(=O)N1CCC[C@H]1C(=O)N[C@@H](CCCNC(=N)N)C(=O)N[C@@H](CC(N)=O)C(=O)N[C@@H](CCCCN)C(=O)Nc1ccc2c(CC(N)=O)cc(=O)oc2c1 [Ac-PRNK-ACC, Acetyl-Prolyl-Arginyl-Asparaginyl-Lysyl-aminoacetamide coumarin] (Ac-PRNK-{ACC}) | 8.9 ± 0.9 µM |  | 14.5 ± 1.9 µM |  |  |  | 
aprotinin |  |  |  |  | significantly and specifically diminished |  | 
Ac-PANK-ACC: acetylated tetrapeptide P-A-N-K with C-terminal 7-amino-4-carbamoylmethyl-coumarin leaving group | 110 ± 9.8 µM |  | 133 ± 15.6 µM |  |  | 20.27 ± 0.48 s⁻¹ | 19.06 ± 0.64 s⁻¹
